The numbers were not newly measured in patent US11419848B2, “Combination of unsaponifiable lipids combined with polyphenols and/or catechins for the protection, treatment and repair of cartilage in joints of humans and animals” (NUTRAMAX LABORATORIES, INC., priority 2004, dated 2022), which cites them from elsewhere.

The structures appear in SMILES notation.

The test system of series [1] is IL-1 induced expression of nitric oxide synthase and nitric oxide production.
For series [2], the system named is chronic inflammation model. The following applies: administered topically and in a chronic inflammation model, mouse.
Another series deals with carrageenan paw oedema. To be noted: rats, extracts of Verbena officinalis.
For series [3] the following is noted: identified in ethanolic extract of cactus.

For `O=C(O[C@@H]1Cc2c(O)cc(O)cc2O[C@@H]1c1cc(O)c(O)c(O)c1)c1cc(O)c(O)c(O)c1` [EGCG, epigallocatechin gallate], in series [1], the “IL-1 induced expression of nitric oxide synthase and nitric oxide production” value is reported as “inhibits”; the “activation of nuclear factor-kB” value was “suppresses”.

For `CC[C@H](CC[C@@H](C)[C@H]1CC[C@H]2[C@@H]3CC=C4C[C@@H](O)CC[C@]4(C)[C@H]3CC[C@]12C)C(C)C` [beta sitosterol], the results for the anti-inflammatory activity result (in series [2]; with carrageenan paw oedema; in series [3]) were “potent anti-inflammatory agents”, “one of the potent anti-inflammatory agents” and “anti-inflammatory activity”, respectively.

With `CC[C@H](/C=C/[C@@H](C)[C@H]1CC[C@H]2[C@@H]3CC=C4C[C@@H](O)CC[C@]4(C)[C@H]3CC[C@]12C)C(C)C` [stigmasterol], the anti-inflammatory activity entry in series [2] is “potent anti-inflammatory agents”.
